From US11098040B2, “Compounds and methods of use” (Ferro Therapeutics, Inc., priority 2018, dated 2021)

Experiments:
PSN-1 = assay: Cell proliferation assay, pancreatic cancer cell line PSN-1; assay type: cell-based; settings: Homo sapiens, PSN1
Protocol: (§1) Cell viability assay was performed to assess the potency of the compounds in human cancer cell lines 786-O (renal cell carcinoma) and SJSA-1 (osteosarcoma). Additional cell lines, such as those described above in Example 4 as well as various others, e.g., pancreatic cancer cell lines (Panc 02.13, BxPC-3, Panc 12, Panc 02.03, Panc 6.03, PSN-1, HPAC, and Capan-1) and prostate cancer cell lines (PC-3, DU145, 22Rv1, NCI-H660, BPH1, LNCaP, BM-1604, and MDA PCa 2b), were tested for select compounds as shown in Table 25.
(§2) The cell proliferation assays for the compounds shown Table 25 was performed according to the protocols described herein, including Examples 4 and 6.

Panc 02.03 = assay: Cell proliferation assay, pancreatic cancer cell line Panc 02.03; assay type: cell-based; settings: Homo sapiens
Protocol: as §1, §2

Panc 12 = assay: Cell proliferation assay, pancreatic cancer cell line Panc 12; assay type: cell-based
Protocol: as §1, §2

143B = assay: Cell viability assay (CellTiter Glo), osteosarcoma 143B; assay type: cell-based; settings: Homo sapiens, Cell Line 143B, read-out: IC50
Outline: (§3)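 Cells seeded at 500-5,000/well overnight, then 96 h exposure to 9-point 3-fold dilutions from up to 30 μM (4.6 nM-30 μM), final DMSO ≤0.25%. Viability by CellTiter Glo luminescence; inhibition relative to DMSO-only cells, yielding IC50, relative IC50 or % top inhibition.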

BxPC-3 = assay: Cell proliferation assay, pancreatic cancer cell line BxPC-3; assay type: cell-based; settings: Homo sapiens
Protocol: as §1, §2

HPAC = assay: Cell proliferation assay, pancreatic cancer cell line HPAC; assay type: cell-based; settings: Homo sapiens
Protocol: as §1, §2

Panc 6.03 = assay: Cell proliferation assay, pancreatic cancer cell line Panc 6.03; assay type: cell-based
Protocol: as §1, §2

MiaPaCa-2 = assay: Cell viability assay (CellTiter Glo), pancreatic carcinoma MiaPaCa-2; assay type: cell-based; settings: Homo sapiens; Cell Line Mia PaCa-2; read-out: IC50
Outline: (§4)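 MiaPaCa-2 and AsPC-1 cells were seeded overnight at 37 °C and exposed for 96 h to 9-point, 3-fold dilutions from up to 30 μM (final DMSO ≤0.25%). CellTiter Glo luminescence was read, and inhibition was calculated relative to DMSO-only cells. IC50, relative IC50 or % top inhibition was derived.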

Panc 02.13 = assay: Cell proliferation assay, pancreatic cancer cell line Panc 02.13; assay type: cell-based
Protocol: as §1, §2

AsPC-1 = assay: Cell viability assay (CellTiter Glo), pancreatic adenocarcinoma AsPC-1; assay type: cell-based; settings: Homo sapiens, ASPC1; Cell Line AsPC-1; read-out: IC50
Outline: as §4

H2228 = assay: Cell viability assay (CellTiter Glo), lung cancer cell line H2228; assay type: cell-based; settings: Homo sapiens, NCI-H2228; Cell Line H2228; read-out: IC50
Protocol: (§5) Cell viability assay was performed to assess the potency of the compounds in human cancer cell lines KP4 (pancreatic ductal adenocarcinoma), MiaPaCa-2 (pancreatic carcinoma), AsPC-1 (pancreatic adenocarcinoma, ascites), 143B (osteosarcoma), and SJSA-1 (osteosarcoma). Selected compounds were also assayed in a human breast epithelial cell line MCF-10A, a nontumorigenic cell line as a control to assess differential activity. Cells at a density of 500-5,000 cells/well were seeded in 96-well plates and incubated at 37° C. overnight. A series of 9 different concentrations of compound stocks (500×) were created by 3-fold serial dilution in DMSO. These compounds were further diluted in culture media and then added to cells so that the final DMSO concentration was equal to 0.25% or less. After 96 hours of incubation, 50 μL of CellTiter Glo reagent (Promega) was added to each well and luminescence was measured after 10 minutes using EnVision (PerkinElmer). Compounds titrated from top concentration of up to 30 μM. The select compounds were tested initially from 30 μM as the top concentration in duplicates (range of 4.6 nM-30 μM). […] Luminescence from cells treated with DMSO alone was set as Max and % of inhibition was calculated as follows: Inhibition %=(Max-Sample value)/Max*100. Data was analyzed using XL-fit software (ID Business Solutions Ltd.). IC50, relative IC50, or % of top inhibition was calculated.
(§6) A group of selected analogs were further profiled in cell viability assays described above in multiple additional cancer cell lines, including lung cancer, melanoma, hepatocarcinoma, pancreatic cancer, leukemia, lymphoma, ovarian cancer, breast cancer, colon cancer, and sarcoma cell lines. Initial cell seeding numbers were adjusted for each cell line. Typically, 500-5000 cells/well for adherent cells and 5000-10000/well for suspension cells were seeded in 96-well plates.

HT-1080 luc2 = assay: Cell viability assay (CellTiter Glo), fibrosarcoma HT-1080 luc2; assay type: cell-based; settings: Homo sapiens, Cell Line HT1080, read-out: IC50
Protocol: as §5, §6
The results of the assay in sarcoma cell lines are given in Table 21a for HT-1080 luc2 (fibrosarcoma expressing a luciferase gene), Table 21b for 143B (osteosarcoma), and Table 21c for SJSA-1 (osteosarcoma).

Capan-1 = assay: Cell proliferation assay, pancreatic cancer cell line Capan-1; assay type: cell-based; settings: Homo sapiens
Protocol: as §1, §2

U-2 OS = assay: Cell proliferation assay, U-2 OS (Table 25); assay type: cell-based; settings: Homo sapiens, U2OS; Cell Line U-2 OS
Protocol: as §1, §2

A549 = assay: Cell viability assay, A549 cells; assay type: cell-based; settings: Homo sapiens, A549, Cell Line A549; read-out: IC50
Outline: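 Growth of A549 cells was assessed with a cell viability assay. Cells were plated at 1,000-10,000 cells/well in 96-well plates and incubated overnight at 37° C. Nine-point 3-fold DMSO dilutions, starting from 30 μM and run in duplicate, were diluted into media (final DMSO 0.25% or less). After 96 hours, CellTiter Glo luminescence was read, inhibition was calculated against DMSO controls, and IC50 was fitted in XL-fit.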

MG-63 = assay: Cell proliferation assay, MG-63 (Table 25); assay type: cell-based; settings: Homo sapiens
Protocol: as §1, §2

SJSA-1 = assay: Cell viability assay (CellTiter Glo), osteosarcoma SJSA-1; assay type: cell-based; settings: Homo sapiens, 96 hours
Outline: as §3

KP4 = assay: Cell viability assay (CellTiter Glo), pancreatic ductal adenocarcinoma KP4; assay type: cell-based, human; settings: Homo sapiens, KP-4, Cell Line KP4; read-out: IC50
Outline: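 Luminescent ATP readout (CellTiter Glo) after 96 h compound exposure, normalized to DMSO-treated cells as maximum. Compounds ran in duplicate, nine 3-fold steps from 30 μM down to 4.6 nM, final DMSO ≤0.25%; KP4 plated overnight at 1,000–10,000 cells/well. Outputs: IC50, relative IC50 or % top inhibition.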

IC50 (PSN-1)	IC50 (Panc 02.03)	IC50 (Panc 12; Cell Line Panc 8)	IC50 (143B)	IC50 (BxPC-3)	IC50 (HPAC)	IC50 (Panc 6.03)	IC50 (MiaPaCa-2)	IC50 (Panc 02.13)	IC50 (AsPC-1)	IC50 (H2228)	IC50 (HT-1080 luc2)	IC50 (Capan-1)	IC50 (A549)	IC50 (Panc 12; Cell Line Panc 9)	IC50 (SJSA-1)	IC50 (KP4)	SMILES	IC50 (U-2 OS)	IC50 (MG-63; MG-63, Cell Line MG-63)	IC50 (MG-63; MG-63, Cell Line MG-67)
46.2 nM	148 nM	14.8 nM	11.4 nM	86.7 nM	48.4 nM	32.8 nM	57 nM	216 nM	12.7 nM	3.37 nM	7.16 nM	261 nM					CC[C@H]1Cc2c([nH]c3ccccc23)[C@H](c2ccc(N3CCOCC3)cc2)N1C(=O)CCl [Example 117]	3600 nM		
17.6 nM	48.9 nM		4.74 nM	54.4 nM	20.5 nM	15.6 nM	16.4 nM	103 nM	7.34 nM	1.38 nM	3.81 nM	130 nM	5370 nM	6.38 nM	28 nM	0.92 nM	CCC[C@H]1Cc2c([nH]c3ccccc23)[C@H](c2ccc(N3CCOCC3)cc2)N1C(=O)CCl [Example 118]	5020 nM	39.3 nM	> 3000 nM
